Test systems include A498 renal; A549 NSCLC; HCT-15 colon; NCI-H23 lung; NCI-H522 lung; SF-295 CNS; SK-MEL-2 melanoma; SNB-19 CNS; SNB-75 CNS; UACC-257 melanoma.
Common to all, as to experiment: DTP human tumour cell line panel, 48 h

SMILES strings stand for the structures.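 48-hour exposure; five concentrations; linearly interpolated endpoints. GI50: concentration for 50% inhibition of growth. TGI marks complete inhibition of growth.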 A value given as a limit tells only on which side of the number the result lay.

Broadly, the TGI is the concentration at which net growth stops. Read a low TGI as greater sensitivity of the cells. For `CNC=O`, the TGI in the experiment with A498 renal, in the experiment on A549 NSCLC, in the experiment on HCT-15 colon, in the experiment on NCI-H23 lung, in the experiment on NCI-H522 lung and in the experiment with SF-295 CNS was above 10000 µM throughout. The TGI in the experiment on SK-MEL-2 melanoma, in the experiment on SNB-19 CNS, in the experiment with SNB-75 CNS and with UACC-257 melanoma was above 10000 µM throughout.
For `Nc1ccccc1Sc1ccc(Cl)cc1`, the TGI with A498 renal was above 100 µM; in the experiment on A549 NSCLC, above 100 µM; in the experiment with HCT-15 colon, above 100 µM; in the experiment on NCI-H23 lung, 64.4 µM; in the experiment on SF-295 CNS, above 100 µM; in the experiment with SK-MEL-2 melanoma it was 87.8 µM. In addition, the TGI in the experiment on SNB-75 CNS is 88.9 µM; with UACC-257 melanoma, 54.1 µM.
Turning to `COc1cc(/C=C/C(=O)O)ccc1O`, the total growth inhibition concentration (TGI) with A549 NSCLC, in the experiment on HCT-15 colon, with NCI-H23 lung, in the experiment with NCI-H522 lung, in the experiment with SF-295 CNS and in the experiment with SK-MEL-2 melanoma was above 100 µM each time. For the same compound, the TGI in the experiment on SNB-19 CNS, in the experiment with SNB-75 CNS and in the experiment on UACC-257 melanoma was above 100 µM throughout.
One may read the GI50 as the concentration giving 50% growth inhibition. Regarding `COc1cc2cnc3c(c2cc1OC)Cc1cc2c(cc1-3)OCO2`, the GI50 in the experiment with A498 renal is below 0.0183 µM; in the experiment on A549 NSCLC it was below 0.0153 µM; in the experiment with HCT-15 colon, below 0.01 µM; in the experiment on NCI-H522 lung, below 0.01 µM; with SF-295 CNS, below 0.01 µM; in the experiment on SNB-19 CNS, 0.0486 µM. The GI50 with SNB-75 CNS was 0.0109 µM. Further, the TGI is 17.8 µM with A498 renal; above 54.5 µM in the experiment on A549 NSCLC; above 100 µM in the experiment on HCT-15 colon; 24.6 µM in the experiment on NCI-H23 lung; above 37.6 µM in the experiment on SF-295 CNS; 37.7 µM in the experiment with SNB-19 CNS. Further, the TGI in the experiment with SNB-75 CNS is above 49.3 µM.
For the compound `C/C(=C1/N=C(c2cc([N+](=O)[O-])ccc2Cl)N(C2=CC=C(Cl)CC2)C1=O)c1cc2ccccc2oc1=O`, the TGI is above 100 µM in the experiment on A498 renal; above 100 µM in the experiment with A549 NSCLC; 58.8 µM with NCI-H23 lung; above 100 µM in the experiment with NCI-H522 lung; above 100 µM in the experiment on SF-295 CNS; above 100 µM with SNB-19 CNS. Further, the TGI in the experiment with SNB-75 CNS and in the experiment on UACC-257 melanoma was above 100 µM throughout.
`CCCCN(CCCC)c1ccc(N=Nc2ccc(S(=O)(=O)O)cc2)cc1`: the TGI was above 100 µM in the experiment with A498 renal; above 100 µM in the experiment with A549 NSCLC; 40.4 µM in the experiment with HCT-15 colon; 47.2 µM with NCI-H23 lung; above 100 µM in the experiment with SF-295 CNS; above 100 µM with SK-MEL-2 melanoma. Also, the values for the TGI in the experiment on SNB-19 CNS, in the experiment with SNB-75 CNS and with UACC-257 melanoma were above 100 µM, 39.2 µM and above 100 µM, respectively.
For `O=S(=O)(O)c1ccc(N=Nc2ccc(N=Nc3ccc(/C=C/c4ccc(N=[N+]([O-])c5ccc(/C=C/c6ccc(N=Nc7ccc(N=Nc8ccc(S(=O)(=O)O)cc8)c8ccccc78)cc6S(=O)(=O)O)c(S(=O)(=O)O)c5)cc4S(=O)(=O)O)c(S(=O)(=O)O)c3)c3ccccc23)cc1`, the TGI is above 100 µM in the experiment with A498 renal; above 100 µM in the experiment on A549 NSCLC; above 100 µM with HCT-15 colon; above 100 µM in the experiment on NCI-H23 lung; 99.7 µM in the experiment on NCI-H522 lung; above 100 µM with SF-295 CNS. Besides, the TGI in the experiment with SK-MEL-2 melanoma, in the experiment on SNB-75 CNS and in the experiment on UACC-257 melanoma was above 100 µM in each case.
Turning to `CC1=CC[C@H](C)C(C)(C)C1/C=C/C(C)=C/CC[C@@]1(CO)[C@H](CCCO)/C(=C(/C)C=O)CC[C@]1(C)O` (stereo partly specified), the TGI in the experiment with A549 NSCLC was determined as 6.21 µM; in the experiment on HCT-15 colon, 20.4 µM; in the experiment on NCI-H23 lung it was 23 µM; with NCI-H522 lung it was 11.3 µM; with SF-295 CNS, 13.9 µM; in the experiment on SK-MEL-2 melanoma, 29.5 µM. Further, the TGI in the experiment on SNB-19 CNS was determined as 21.4 µM; in the experiment on UACC-257 melanoma it was 28.8 µM.
On to `CC(=O)/C=C/c1c[nH]c(=O)[nH]c1=O`, for which the TGI in the experiment on A498 renal was 566 µM; in the experiment with A549 NSCLC, 1090 µM; with HCT-15 colon it was 523 µM; with NCI-H23 lung, 745 µM; in the experiment on NCI-H522 lung it was 295 µM; with SF-295 CNS, 751 µM. The TGI amounted to 444 µM with SK-MEL-2 melanoma, 903 µM in the experiment with SNB-19 CNS, 681 µM with SNB-75 CNS and 641 µM in the experiment with UACC-257 melanoma.
For `C=CCN1C(=O)/C(=C/c2cccs2)N=C1SC1OC(COC(=O)c2ccccc2)C(OC(=O)c2ccccc2)C1OC(=O)c1ccccc1` (stereo unspecified), the concentration for total growth inhibition (TGI) is above 100 µM in the experiment with A498 renal; above 100 µM with HCT-15 colon; above 100 µM with NCI-H23 lung; 28 µM in the experiment on NCI-H522 lung; above 100 µM with SF-295 CNS; above 100 µM with SK-MEL-2 melanoma. Moreover, the TGI with SNB-75 CNS and with UACC-257 melanoma was above 100 µM throughout.
With `C=C1C(C[C@@H]2O[C@H]3C[C@H]4O[C@@]5(C[C@@H]6O[C@]7(C[C@H](C)[C@@H]8O[C@@H]9CC(C(O)CO)O[C@@H]9C[C@@H]8O7)C[C@H](C)[C@@H]6O5)C[C@H]4O[C@H]3[C@H](C)[C@H]2O)O[C@@H](CC[C@@H]2O[C@@H](CC[C@@]34CC5O[C@H]6C(O[C@H]7CC[C@H](CC(=O)OC)O[C@@H]7[C@@H]6O3)[C@H]5O4)CC2=C)C[C@H]1C` (stereo partly specified), the TGI was above 0.783 µM in the experiment with A549 NSCLC; 0.0209 µM in the experiment with HCT-15 colon; above 1 µM in the experiment with SNB-19 CNS; above 1 µM in the experiment on SNB-75 CNS; above 1 µM in the experiment with UACC-257 melanoma.
Take `C[C@@H]1CCN(C(=O)CC#N)C[C@@H]1N(C)c1ncnc2[nH]ccc12`: the GI50 was 23.3 µM with A498 renal; above 100 µM in the experiment with A549 NSCLC; above 100 µM with HCT-15 colon; above 100 µM in the experiment on NCI-H23 lung; above 100 µM in the experiment with NCI-H522 lung; above 100 µM in the experiment on SF-295 CNS. In addition, the GI50 with SK-MEL-2 melanoma is above 100 µM; with SNB-75 CNS, 12.9 µM; in the experiment on UACC-257 melanoma it was above 100 µM. Besides, the TGI with A498 renal, in the experiment on A549 NSCLC, in the experiment with HCT-15 colon, with NCI-H23 lung, with NCI-H522 lung and with SF-295 CNS was above 100 µM throughout. Moreover, the values for the TGI with SK-MEL-2 melanoma, with SNB-75 CNS and in the experiment on UACC-257 melanoma were above 100 µM, 84.5 µM and above 100 µM, respectively.

Values taken from PubChem BioAssay (NCI).
